Laboratory results from ChEMBL document CHEMBL5727139, “Pyridine derivatives” (2018).

The molecules below were run against T1, Leucyl-cystinyl aminopeptidase (Rattus norvegicus, UniProt P97629) (assay: Inhibition Assay: The inventors have assumed that inhibition of nocturnal activity of placental leucine aminopeptidase (P-LAP), i.e. aminopeptidase that cleaves AVP, would maintain and/or increase an endogenous AVP level to enhance the antidiuretic effect, which would contribute to a decreased number of nocturnal voids, and have extensively studied compounds which inhibit P-LAP.).
T1 sequence (P97629 whole entry): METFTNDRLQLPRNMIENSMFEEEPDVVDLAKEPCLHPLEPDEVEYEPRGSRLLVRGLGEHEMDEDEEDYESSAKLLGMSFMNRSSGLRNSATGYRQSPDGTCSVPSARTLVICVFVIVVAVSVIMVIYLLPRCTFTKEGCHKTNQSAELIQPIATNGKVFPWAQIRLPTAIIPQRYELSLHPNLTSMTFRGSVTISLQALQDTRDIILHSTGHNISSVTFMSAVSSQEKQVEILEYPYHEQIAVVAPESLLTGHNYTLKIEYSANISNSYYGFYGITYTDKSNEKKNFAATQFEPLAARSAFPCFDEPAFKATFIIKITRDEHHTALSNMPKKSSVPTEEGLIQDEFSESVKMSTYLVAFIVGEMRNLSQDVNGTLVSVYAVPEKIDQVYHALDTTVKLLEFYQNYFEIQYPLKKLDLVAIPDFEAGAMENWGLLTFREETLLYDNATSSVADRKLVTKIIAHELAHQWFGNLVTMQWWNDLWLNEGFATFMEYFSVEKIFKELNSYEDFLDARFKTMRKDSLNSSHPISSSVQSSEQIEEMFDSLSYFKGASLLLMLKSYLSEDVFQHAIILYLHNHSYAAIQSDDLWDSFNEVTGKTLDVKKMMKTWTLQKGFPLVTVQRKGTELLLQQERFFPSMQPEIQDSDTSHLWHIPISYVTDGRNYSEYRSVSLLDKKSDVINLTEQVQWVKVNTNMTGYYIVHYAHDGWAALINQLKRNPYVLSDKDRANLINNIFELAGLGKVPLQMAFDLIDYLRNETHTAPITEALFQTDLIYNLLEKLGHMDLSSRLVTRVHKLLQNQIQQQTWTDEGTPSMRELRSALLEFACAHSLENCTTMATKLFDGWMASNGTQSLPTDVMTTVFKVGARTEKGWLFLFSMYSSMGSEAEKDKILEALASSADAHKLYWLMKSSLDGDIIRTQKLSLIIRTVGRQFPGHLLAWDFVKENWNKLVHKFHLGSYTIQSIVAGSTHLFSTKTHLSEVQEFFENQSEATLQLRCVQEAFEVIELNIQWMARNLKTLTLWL

| Structure (SMILES) | IC50 [nM] |
| --- | --- |
| CCCC1CC1c1ccnc(C[C@](O)(C(=O)O)[C@@H](N)CC(C)C)c1 (stereo partly drawn) | 19 |
| CCCCCc1ccnc(C[C@](O)(C(=O)O)[C@@H](N)CC(C)C)c1 | 11 |
| C=CCSC[C@H](N)[C@](O)(Cc1cc(CCCC2CC2)ccn1)C(=O)O | 20 |
| Cc1c(CCCC2CC2)ccnc1C[C@](O)(C(=O)O)[C@@H](N)CC(C)C | 370 |
| Cc1cnc(C[C@](O)(C(=O)O)[C@@H](N)CCC2CC2)cc1CCCC1CC1 | 0.58 |
| CC(C)C[C@H](N)[C@](O)(Cc1nccc2c1CCC(CC1CC1)C2)C(=O)O (stereo partly drawn) | 15 |
| COc1ccccc1CCc1ccnc(C[C@](O)(C(=O)O)[C@@H](N)CC(C)C)c1 | 12 |
| CSC[C@H](N)[C@](O)(Cc1cc(CCCC2CC2)c(C)cn1)C(=O)O | 1.7 |
